Tests used:
hMDMs = assay: RNA-seq transcriptional response of hMDMs (GSEA, GO enrichment); type: cell-based, human; conditions: for gene expression of TPP modules (#30, #32) / gene expression of typical M1 modules (#7, #8): hMDMs, 24 hrs, GSEA; for macrophage phenotype at transcriptional and translational level: human macrophages
Experimental: Duplicate hMDM samples were treated with 2 M2-activating and 6 M1-activating compounds as well as IL-4 and IFNγ for 24 hrs. Gene expression levels were measured by RNA-seq separately. GSEA preranked analysis was performed based on the whole genome gene list ranked on gene expression changes using a gene set of 49 transcriptional modules in response to 29 stimuli in hMDMs. bosut.: bosutinib; alster.: alsterpaullone; mocet.: mocetinostat; thios.: thiostrepton; niclo.: niclosamide; chlor.: chlorhexidine; fenb.: fenbendazole; fluvo.: fluvoxamine. […] Duplicate hMDM samples were stimulated with each ligand and analyzed by RNA-seq separately.
RNAs were extracted with RNeasy MiniElute kit (Qiagen), converted into cDNA and sequenced using Next-Generation Sequencing (Illumina). […] Differential expression analysis was performed using the program edgeR at P<0.05 with a 2 fold-change. The gene expression level across different samples was normalized and quantified using the function of cpm. Differentially expressed genes were annotated using online functional enrichment analysis tool DAVID (http://david.ncifcrf.gov/). Gene set enrichment analysis were performed with GSEA with FDR q-value<0.05.
Fresh hMDMs were treated with compounds at the EC for 24 hours, followed by RNA-seq.

M0 macrophages (hMDMs) = assay: Dosage response of cell shape change on M0 macrophages; type: cell-based, human; conditions: M0 macrophages; for EC: EC = concentration inducing cell morphology changes to reach the M1 or M2 Z-score cutoff, Michaelis-Menten fit, 3 independent experiments, unit of the source corrected; for Max absolute Z-value: Max Z-score from Michaelis-Menten equation, negative = round, positive = elongated
[1] = system: mouse bone marrow macrophages (BMMs); assay: Development and function of TAM/M2-like macrophages in vitro (qPCR, flow cytometry); type: cell-based; conditions: mouse BMMs, induced by IL4/IL13, 24 hours
Experimental: DEGs were identified by edgeR at P<0.05 with at least 2 fold-change. Data for genes that were not classified as differentially expressed are plotted in black. […] Mouse BMMs were cultured in normal medium with or without 2.5 μM thiostrepton for 24 hrs (group 1), or cultured in B16F10 tumor cell conditioned medium (CM) with or without 2.5 μM thiostrepton for 24 hrs (group 2), or cultured with B16F10 tumor cell CM for 24 hrs first and then treated with 2.5 μM thiostrepton for another 24 hrs (group 3). The transcript levels of the indicated genes were quantified by qPCR. Data were summarized from two independent experiments. […] Mouse BMMs were treated with thiostrepton for 24 hrs. Untreated and treated macrophages were co-cultured with equal number of B16F10 melanoma cells for 12 hrs. The number of tumor cells were quantified by flow cytometry after subtracting macrophages from total number of cells. Data were summarized from three independent experiments. ** P<0.01 by T-test.
Expression of MHCII, CD80, iNOS, Arg1 and CD206 were quantified by flow cytometry. Shown are representative staining profiles of treated (red) and untreated (dark) TAMs from two independent experiments. […] Alternatively, mouse BMMs were polarized with IL-4/IL-13 (group 3) or lactic acid (group 5) for 24 hrs first and then either not treated or treated with […] thiostrepton for another 24 hrs. The transcript levels of the indicated genes were quantified by qPCR. Data are summarized from two independent experiments.
Mouse BMMs were not treated or treated with […] thiostrepton for 24 hours in normal medium (group 1) or in the presence of IL4/IL13 (group 2), or mouse BMMs were polarized with IL4/IL13 for 24 hours and then either not treated or treated with […] thiostrepton for 24 hours (group 3). RNA was isolated and the transcript levels of the indicated genes were quantified by PCR. Data, shown as mean±s.d., were summarized from two independent experiments. * P<0.05 and ** P<0.01 by T-test. […] Data are shown as mean±s.e.m. FIGS. 19C-19D show flow cytometry analysis of TAM (F4/80^+CD11b^+Ly6C^−Ly6G^−), inflammatory monocytes (F4/80′^intCD11b^+Ly6C^+Ly6G^−) and monocytes (F4/80^−CD11b^+Ly6C^+Ly6G^+) in the tumors of mice treated with DMSO, TA99, cucurbitacin I, and cucurbitacin I plus TA99 18 days after tumor engraftment. Shown are representative F4/80 versus CD11b staining profiles gating on CD45+ cells and MHCII histograms gating on macrophages from c.
Mouse bone marrow-derived macrophages (mBMM) were prepared as described previously^54. Briefly, fresh bone marrow cells were isolated from B6 mice. Cells were plated into 6-well plate with 1×10^6/mL in complete RPMI with 2-mercaptoethanol and cultured for 6 days with fresh medium change every 2 days. mBMMs were differentiated to resemble TAMs in the presence of 10 ng/mL mIL-4 and mIL-13 (Peprotech) or 25 mM lactate acid for 24 hrs or tumor conditioned medium (CM). To prepare CM, 70% confluent B16F10 cultured were replaced with fresh medium and the tumor medium was collected and filtered ([…]) 24 hrs later. The mixture of 3 volumes of tumor medium with 1 volume of complete RPMI for mBMM serves as the CM. Expression of Arg, Fizz1 and Vegfa were quantified by qPCR to assess the development of TAMs. Other genes of Tnf, Il1b, Nos2, Cxcl2, Ccl5, Ym1 and Tgfb serve as macrophage activating markers. To assay the tumor growth inhibition, mBMMs (10,000 cells per well in 96 well plate) were treated with thiostrepton for 24 hrs and then cocultured with equal number of B16 melanoma cells in fresh complete RPMI for 12 hrs. The conditioned medium treated or not treated with thiostrepton were collected and filtered. The numbers of B16 melanoma cells were cultured for 12 hrs with conditioned medium or conditioned medium heated at 95° C. for 5 min. Tumor cells were quantified by flow cytometry to determine the macrophage-dependent killing function. […]

[2] = system: subcutaneous B16F10 tumors; assay: B16F10 melanoma model in B6 mice; type: in vivo, mouse; conditions: i.p. 1 mg/kg
[3] = system: hMDMs differentiated into M2 by IL-4 plus IL-13; assay: Reprogramming screen and dosage response on M2-like differentiated macrophages; conditions: for EC: M1-activating compounds on M2-like macrophages (IL-4 plus IL-13), EC = concentration reaching Z-score cutoff; for Category: differentiated macrophages; for EC (M1 Z-score cutoff): Homo sapiens, Macrophage, 24 h, read-out: EC;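 for all read-outs here: human monocyte-derived macrophages held 24 h in 5 ng/mL IL-4 plus IL-13 before 24 h compound exposure, with cell shape measured from images in 384-well plates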
Experimental: Shown are comparison of Z-scores between 5 μM or 10 μM of compounds. […] Shown are comparison of Z-scores between 5 μM or 10 μM of compounds. […] EC and fitness of 21 M1-polarizing (triangle) and 19 M2-polarizing compounds (circle) were calculated by the Michaelis-Menten equation and plotted. Data were summarized from 3 independent experiments.
Human macrophages were seeded into optical 384-well plates. Sixteen hours later, medium in M1 plates were replaced by M1 differentiating medium (complete RPMI with 50 ng/mL IFNγ and 50 ng/mL TNFα) and medium in M2 plates by M2 differentiating medium (complete RPMI with 5 ng/mL IL-4 and 5 ng/mL IL-13). After 24 hrs cell differentiation, M1 plates (M1 macrophages) and M2 plates (M2 macrophages) were treated with M2-activating compounds and M1-activating compounds respectively for 24 hrs. Two independent experiments were performed with or without replacing differentiating medium right before treatment. Cell imaging and analysis were performed as indicated above.
To investigate whether the identified compounds could reprogram or reactivate macrophages after M1- or M2-like differentiation, we rescreened the hits on M1- or M2-activated macrophages. hMDMs were activated into M2-like macrophages by IL-4 plus IL-13 or M1-like macrophages by IFNγ plus TNFα. After removing the differentiating cytokines, M2-like macrophages were treated with each of the 166 M1-activating compounds and M1-like macrophages were treated with each of the 180 M2-activating compounds at a final concentration of either 5 μM and 10 μM. 24 hours later, cell images were taken and cell shapes were quantified. […] Dosage responses were carried out with 40 commercial available compounds (21 M1-activating and 19 M2-activating) on polarized macrophages.
We also rescreened the hits on differentiated macrophages in the presence of differentiating cytokines: either IL-4 plus IL-13 or IFNγ plus TNFα.

[4] = system: human monocyte-derived macrophages (hMDMs); assay: High throughput phenotypic screen of macrophage activation (cell shape, Z-score); type: cell-based; parameters: key to Average Z-value: Z-score vs DMSO; negative = round cells, positive = elongated; conditions: for activation state induced in the screen: compounds regulating actin-cytoskeleton;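 for all read-outs here: phalloidin and DAPI stained hMDMs imaged by high-content microscopy, cell eccentricity compared with DMSO control by T-test, round morphology scored negative, elongated positive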
Experimental: The Z-score was calculated by T-test to measure the difference of cell morphology between treatment and control. Stimuli had negative Z-scores when induced cells to round morphology and positive scores when induced cells to elongated morphology. […] Equally mixed human monocytes isolated from fresh blood of 4 healthy donors were cultured in vitro with 50 ng/mL M-CSF for 7 days. hMDMs were trypsinized and plated on 384-well plates (5000 cells/well in 50 μL). Cells were recovered in 10 ng/mL M-CSF for 16 hrs and then treated with compounds for 24 hrs. Cells were washed, fixed and stained with Phalloidin and DAPI. The plates were scanned with a high-content microscope with six-fields per well to quantify the cell number and cell morphology. […] The cell eccentricity was calculated to measure the cell morphology. The Z-score was calculated by T-test to measure the difference in cell morphologies between each compound and DMSO control.
Cells were treated with a library of over 4000 individual compounds or drugs at the final concentration of 20 μM using the CyBi-Well simultaneous pipettor (CyBio). […] After 24 hr incubation, supernatants were removed using the microplate washer (Bioteck) and cells were fixed by adding 50 μL 16% paraformaldehyde (Thermo Scientific) with the dispenser for 20 minutes. Cells were then washed with 50 μL 1×PBS twice and incubated for 20 minutes with NucBlue and AF746 Phalloidin (Invitrogen) to stain nucleus and cytoskeleton. Cells were then washed with 50 μL 1×PBS twice and maintained in PBS for the image acquirement. Plates were read in the Opera Phenix high content screening system (PerkinElmer) to photograph cells using 20× objective in 2 fluorescent channels (Blue and FarRed). A total of 6 different fields in each well and an average of 1,000 cells were imaged per well. CellProfiler was used to identify each cell by overlapping signals from its nucleus and cytoskeleton, and calculate the eccentricity as the parameter to measure the cell morphology. The Z-score was calculated by T-test to measure the difference of cell morphology between each treatment and control. For each row of the 384-well plate, total 4 wells with first and last two columns treated with the same concentration of DMSO were combined as the control for the other 20 treatment wells in that row. In the meantime, classic M1 and M2 stimuli were added to generate the gold-standard Z-score cutoffs with M1 or M2 activation. Classic M1 stimuli include LPS (100 ng/mL), IFNγ (50 ng/mL, Peprotech), TNFα (50 ng/mL, Peprotech), or IFNγ plus TNFα. Classic M2 stimuli include IL-10 (10 ng/mL, Peprotech), IL-4 (10 ng/mL, Peprotech), or IL-13 (5 ng/mL, Peprotech).

[5] = system: ImKCs (immortalized line of mouse Kupffer cells); assay: Seahorse ECAR/OCR (glycolysis, OxPhos) in ImKCs; type: cell-based; conditions: ImKCs, S1P 3 mM, 24 hrs
Experimental: Shown are representative data of three independent experiments. […] Data are presented as the mean±sd (n=4).
FIGS. 21A-21I show DPI stimulates glycolysis through GPR3 and β-arrestin2. FIGS. 21A-21B show DPI-stimulated glycolysis is independent of the NOX activity. […] The mean fluorescence intensity (MFI) of 2-NBDG in cells was measured by flow cytometry and normalized to DMSO controls of wildtype BMDMs. Data are presented as the mean±sd (n=3). […] ImKCs were transfected with siRNA specific for Gpr3 or a scramble siRNA as control. […] Data are presented as the mean±sd (n=4). […] Data are presented as the mean±sd (n=12). […] Abbr2^−/− ImKC were constructed by CRISPR-Cas9-mediated gene editing. […] Data are presented as the mean±sd (n=4). […] ImKCs were transfected with Abbr2-GFP fusion gene and stimulated with DMSO, DPI (50 nM), or S1P (3 mM). The GFP signal was captured with a TIRF microscope at indicated time points. Shown are representative data of GFP signal at 0 min and 10 min, and merged signal from three independent experiments.
Specific parameters for glycolytic capacity and glycolytic reserve were calculated and summarized based on two independent experiments. […] The GFP signal was captured with a TIRF microscope at indicated time points. Shown are representative data of GFP signal at 0 min and 10 min, and the merged signal from three independent experiments.
OCR and ECAR were measured in isolated tissues or cultured ImKCs using the Seahorse XFe Extracellular Flux Analyzer (Agilent). For tissue respiration assays, 1.0 mg adipose tissue was dissected from inguinal WAT depots by using a surgical biopsy instrument (Integra Miltex Standard Biopsy Punches, Thermo Fisher) and placed into XF96 Islet Capture Microplates and pre-incubated with XF assay medium with pH value at 7.4. XF assay medium supplemented with 1 mM sodium pyruvate, 2 mM GlutaMax™-I, and 25 mM glucose. Isolated MDMs or Kupffer cells were subjected to a mitochondrial stress test by adding oligomycin (2 μM) followed by carbonyl cyanide 4-(trifluoromethoxy), phenylhydrazone (FCCP, 5 μM), and antimycin (1 μM). For glucose stress assay and ECAR measurement, XF assay medium was supplemented only with GlutaMax™-I. Tissue or cells were subjected to a glucose stress test by adding highly concentrated glucose (for tissue, 25 mM; for cells, 10 mM), followed by adding oligomycin (5 μM), FCCP (5 μM), and 2-DG (50 mM). Cells were seeded in culture dishes, and the medium was changed after 6 hours with serum-free DMEM. Cells were incubated for 12-16 hours, and the culture medium was then collected for measurement of glucose and lactate concentrations. Glucose levels were determined using a glucose (GO) assay kit (Sigma). Glucose consumption was the difference in glucose concentration when compared with DMEM. Lactate levels were determined using a lactate assay kit (Eton Bioscience).
DPI is an agonist of GPR3 and an inhibitor of […] oxidase (NOX). We first determined the requirement of NOX in DPI-stimulated glycolysis.
To determine the requirement of GPR3, we knocked down GPR3 by siRNA (siGpr3) in ImKCs.
β-arrestin2, encoded by Arrb2, has been reported to bind to GPR3 and is required for GPR3 signaling. To investigate the requirement of 0-arrestin2 in DPI-stimulated glycolysis, we constructed Arrb2^−/− ImKCs using CRISPR-Cas9 mediated gene editing (FIG. 28F).

Compound	gene expression of TPP modules (#30, #32) (hMDMs)	gene expression of typical M1 modules (#7, #8) (hMDMs)	Category (M0 macrophages (hMDMs))	EC (M0 macrophages (hMDMs))	Max absolute Z-value (M0 macrophages (hMDMs))	also measured
NCCc1c[nH]c2ccc(O)cc12 [5HT, serotonin]	down-regulated	up-regulated				
CC(C)(O)/C=C/C(=O)[C@](C)(O)[C@H]1[C@H](O)C[C@@]2(C)[C@@H]3CC=C4[C@@H](C=C(O)C(=O)C4(C)C)[C@]3(C)C(=O)C[C@]12C [Cucurbitacin I]			M1 (−4 for M1-activated macrophages)	0.342 µM	−4.808	development and function of tumor-associated macrophages in vitro [1]: inhibits; B16F10 growth [2]: inhibited; EC [3]: 1.759 µM; Category [3]: M1 (−4 for M1-activated macrophages)
COC(=O)Nc1nc2ccc(Sc3ccccc3)cc2[nH]1 [Fenbendazole]						activation state induced in the screen [4]: M1-activating; macrophage phenotype at transcriptional and translational level (hMDMs): activated macrophages toward M1-like phenotype; EC (M1 Z-score cutoff) [3]: 0.649 µM
CN1c2cc3c(cc2N=C(c2ccc(C(=O)O)cc2)c2ccccc21)C(C)(C)CCC3(C)C [LE135]			M1 (−4 for M1-activated macrophages)	0.419 µM	−8.912	
O=C(Nc1nc2ccc(NC(=O)C34CC5CC(CC(C5)C3)C4)cc2s1)c1ccccc1 [NVP 231]			M1 (−4 for M1-activated macrophages)	2.25 µM	−22.37	Average Z-value ([4]; cell shape Z-score of hMDMs treated with compound at 20 µM for 24 hours, averaged over the compounds listed for the WikiPathways pathway, negative = M1-like, positive = M2-like): −4.79; EC [3]: 5.745 µM; Category [3]: M1 (−4 for M1-activated macrophages)
CCCCCCCCCCCCC/C=C/[C@@H](O)[C@@H](N)COP(=O)(O)O [S1P, sphingosine-1-phosphate]						glycolysis [5]: significant increase
CC(=O)O[C@H]1C(=O)[C@@]2(C)[C@H]([C@H](OC(=O)c3ccccc3)[C@]3(O)C[C@H](OC(=O)[C@H](O)[C@@H](NC(=O)c4ccccc4)c4ccccc4)C(C)=C1C3(C)C)[C@]1(OC(C)=O)CO[C@@H]1C[C@@H]2O [Taxol]						activation state induced in the screen [4]: M1-activating; macrophage phenotype at transcriptional and translational level (hMDMs): activated macrophages toward M1-like phenotype; EC (M1 Z-score cutoff) [3]: 0.129 µM
NCCc1ccc(O)c(O)c1 [dopamine]	up-regulated	down-regulated				
VEGF	down-regulated	up-regulated				
leptin: ligand of novel pathway	down-regulated	up-regulated				

— US20250262167A1, “COMPOUNDS, TARGETS AND PATHWAYS FOR MACROPHAGE MODULATION” (Massachusetts Institute of Technology, priority 2020, published 2025)
